Each compound was assayed on CD4 or CD8 positive T cells (assay: Lymphopenia in rats). Conditions: rat, 24 h after a 0.2 mg/kg single dose.
Type: in vivo
Method: In rats: Female rats (Simonsen Laboratories, Gilroy Calif.) were housed in an ALAAC accredited facility and the research was approved by the facilities Institutional Animal Care and Use Committee (IACUC). The animals were acclimated to the laboratory for at least 5 days prior to initiation of experiments. Rats (n=3/compound/time-point) were dosed by oral gavage with 1 mg/kg compound formulated in a vehicle consisting of 5% DMSO/5% Tween 20 and 90% 0.1N HCL. Control rats were dosed PO with the vehicle. Whole blood was collected from isoflurane anesthetized rats via the retro-orbital sinus and terminal samples were collected by cardiac puncture into EDTA. Whole blood was incubated with mouse anti-rat CD32 (BD #550271), PE-mouse anti-rat CD45R/B220 (BD #554881), PECy5-mouse anti-rat CD4 (BD #554839), and APC-mouse anti-rat CD8a (eBioscience #17-0084) for 30 minutes on ice. Red blood cells were lysed using BD Pharm. Lyse Lysing buffer (#555899) and white blood cells were analyzed with a BD FACSArray. Lymphopenia was expressed as the % of white blood cells that were CD4 or CD8 positive T cells. The overall lymphopenia response over 24 h was estimated by calculating the area under the effect curve (AUEC) using the linear trapezoidal rule. In some experiments, total lymphocyte counts were determined using a standard impediance based veterinary hematology analyzer (IDEXX Preclinical Research Services, Sacramento, Calif.).
The percentage of lymphopenia at 24 h after a 0.2 mg/kg single dose regiment is reported. […] N/A is not available.

**Q.** “(R)-N-((R)-4-(5-(3-cyano-4-isopropoxyphenyl)-1,3,4-thiadiazol-2-yl)-2,3-dihydro-1H-inden-1-yl)-3-(dimethylamino)pyrrolidine-1-carboxamide [Compound 56]” was tested. Which “% Lymphopenia after 24 h (0.2 mg/kg)” value did it give?
**A.** 52%

Each compound was assayed against S1P1/EDG1 (Homo sapiens, UniProt P21453) (assay: S1P1 CRE-bla CHOK1 reporter assay (inhibition of Forskolin induced cAMP)). Conditions: agonist activity range, Table 2; read-out: S1P1 ACTIVITY.
Type: cell-based
Procedure, shortened: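 Stable CRE-bla CHO-K1 clone expressing human S1P1, serum-starved (0.5% stripped serum) 18 h, then treated with compound (10-point curve) plus 2 μM forskolin for 4 h at 37 °C. β-lactamase FRET ratio (458/522 nm) read after 2 h substrate loading; EC50 for inhibition of forskolin-induced cAMP by non-linear regression.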

S1P1/EDG1, sequence (P21453 whole entry): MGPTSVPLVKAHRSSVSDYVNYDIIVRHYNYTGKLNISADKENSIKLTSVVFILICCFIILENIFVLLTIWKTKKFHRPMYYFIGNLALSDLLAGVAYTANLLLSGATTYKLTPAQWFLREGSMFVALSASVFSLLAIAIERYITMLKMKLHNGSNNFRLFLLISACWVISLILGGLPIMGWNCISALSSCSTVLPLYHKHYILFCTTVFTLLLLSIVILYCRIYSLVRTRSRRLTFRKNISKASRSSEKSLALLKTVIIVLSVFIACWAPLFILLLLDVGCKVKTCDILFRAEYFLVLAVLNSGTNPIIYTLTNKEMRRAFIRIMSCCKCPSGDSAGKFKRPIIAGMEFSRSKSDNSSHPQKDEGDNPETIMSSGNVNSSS

**Q.** Which EC50 does the source give for `CC(C)Oc1ccc(-c2ncc(-c3cccc4c3CC[C@@H]4NC(=O)N3CC[C@@H](O)C3)s2)cc1C#N` [Compound 176] here?
**A.** 0.5 to 5 nM

**Q.** With `CC(C)Oc1ccc(-c2ncc(-c3cccc4c3CC[C@@H]4NC(=O)N3CC[C@H](O)C3)s2)cc1C#N` [Compound 177] as the compound, how does the EC50 read?
**A.** 0.05 to 0.5 nM

**Q.** `CC(C)Oc1ccc(-c2ncc(-c3cccc4c3CC[C@@H]4NC(=O)N3CC[C@@H](N)C3)s2)cc1C#N` [Compound 178] was tested. Which EC50 did it give?
**A.** 0.05 to 0.5 nM

**Q.** `CC(C)Oc1ccc(-c2ncc(-c3cccc4c3CC[C@@H]4NC(=O)N3CC[C@H](N)C3)s2)cc1C#N` [Compound 179] was tested. Which EC50 did it give?
**A.** 0.5 to 5 nM

**Q.** How did the EC50 turn out when `CC(C)Oc1ccc(-c2ncc(-c3cccc4c3CC[C@@H]4NC(=O)N3CC[C@H](N)C3)s2)cc1C#N` [Compound 180] was run?
**A.** > 5 nM

**Q.** `CC(C)Oc1ccc(-c2ncc(-c3cccc4c3CC[C@@H]4NC(=O)N3CC[C@@H](N)C3)s2)cc1C#N` [Compound 181] was tested. Which EC50 did it give?
**A.** > 5 nM

**Q.** Which EC50 does the source give for `CC(C)Oc1ccc(-c2ncc(-c3cccc4c3CC[C@@H]4NC(=O)N3CC[C@H](N(C)C)C3)s2)cc1C#N` [Compound 182] here?
**A.** 0.5 to 5 nM

**Q.** Which EC50 does the source give for `CC(C)Oc1ccc(-c2ncc(-c3cccc4c3CC[C@@H]4NC(=O)N3CC[C@@H](N(C)C)C3)s2)cc1C#N` [Compound 183] here?
**A.** 0.5 to 5 nM

**Q.** `CC(C)Oc1ccc(-c2ncc(-c3cccc4c3CC[C@@H]4NC(=O)N3CC[C@H](N(C)C)C3)s2)cc1C#N` [Compound 184] was tested. Which EC50 did it give?
**A.** > 5 nM

**Q.** How did the EC50 turn out when `CC(C)Oc1ccc(-c2ncc(-c3cccc4c3CC[C@@H]4NC(=O)N3CC[C@@H](N(C)C)C3)s2)cc1C#N` [Compound 185] was run?
**A.** > 5 nM

**Q.** `CC(C)Oc1ccc(-c2ncc(-c3cccc4c3CC[C@@H]4NC(=O)N3CCOCC3)s2)cc1C#N` [Compound 187] was tested. Which EC50 did it give?
**A.** 0.5 to 5 nM

**Q.** Which EC50 does the source give for `CC(C)Oc1ccc(-c2ncc(-c3cccc4c3CC[C@@H]4NC(=O)N3CCNCC3)s2)cc1C#N` [Compound 188] here?
**A.** 0.5 to 5 nM

**Q.** `CC(C)Oc1ccc(-c2ncc(-c3cccc4c3CC[C@@H]4NC(=O)N3CCNCC3)s2)cc1C#N` [Compound 189] was tested. Which EC50 did it give?
**A.** > 5 nM

**Q.** With `CC(C)Oc1ccc(-c2ncc(-c3cccc4c3CC[C@@H]4NC(=O)N3CCN(C)CC3)s2)cc1C#N` [Compound 190] as the compound, how does the EC50 read?
**A.** 0.5 to 5 nM

**Q.** `CC(C)Oc1ccc(-c2ncc(-c3cccc4c3CC[C@@H]4NC(=O)N3CCN(C)CC3)s2)cc1C#N` [Compound 191] was tested. Which EC50 did it give?
**A.** > 5 nM

**Q.** For `CC(C)Oc1ccc(-c2ncc(-c3cccc4c3CC[C@@H]4NC(=O)N3CCC(N(C)C)CC3)s2)cc1C#N` [Compound 192], which EC50 is on record?
**A.** > 5 nM

**Q.** For `CC(C)Oc1ccc(-c2ncc(-c3cccc4c3CC[C@@H]4NC(=O)N3CCC(CO)CC3)s2)cc1C#N` [Compound 194], which EC50 is on record?
**A.** 0.5 to 5 nM

**Q.** How did the EC50 turn out when `CC(C)Oc1ccc(-c2ncc(-c3cccc4c3CC[C@@H]4NC(=O)N3CCC[C@H](O)C3)s2)cc1C#N` [Compound 196] was run?
**A.** 0.5 to 5 nM

**Q.** Which EC50 does the source give for `CC(C)Oc1ccc(-c2ncc(-c3cccc4c3CC[C@@H]4NC(=O)N3CCC[C@H](O)C3)s2)cc1C#N` [Compound 197] here?
**A.** 0.5 to 5 nM

**Q.** `CC(C)Oc1ccc(-c2ncc(-c3cccc4c3CC[C@@H]4NC(=O)N3CCC[C@H](O)C3)s2)cc1C#N` [Compound 198] was tested. Which EC50 did it give?
**A.** 0.05 to 0.5 nM

**Q.** `CC(C)Oc1ccc(-c2ncc(-c3cccc4c3CC[C@@H]4NC(=O)N3CCC[C@H](O)C3)s2)cc1C#N` [Compound 199] was tested. Which EC50 did it give?
**A.** 0.05 to 0.5 nM

**Q.** Which EC50 does the source give for `CC(C)Oc1ccc(-c2ncc(-c3cccc4c3CC[C@@H]4NC(=O)N3CCC(CC(=O)O)CC3)s2)cc1C#N` [Compound 200] here?
**A.** 0.05 to 0.5 nM

**Q.** How did the EC50 turn out when `CC(C)Oc1ccc(-c2ncc(-c3cccc4c3CC[C@@H]4NC(=O)N3CCC(O)CC3)s2)cc1C#N` [Compound 202] was run?
**A.** 0.5 to 5 nM

**Q.** For `COC(=O)CC1CCN(C(=O)N[C@H]2CCc3c(-c4cnc(-c5ccc(OC(C)C)c(C#N)c5)s4)cccc32)CC1` [Compound 204], which EC50 is on record?
**A.** 0.5 to 5 nM

**Q.** How did the EC50 turn out when `CC(C)Oc1ccc(-c2ncc(-c3cccc4c3CC[C@@H]4N3CCC3)s2)cc1C#N` [Compound 206] was run?
**A.** 0.05 to 0.5 nM

**Q.** How did the EC50 turn out when `CC(C)Oc1ccc(-c2ncc(-c3cccc4c3CCC4N3CC(O)C3)s2)cc1C#N` (stereo not shown) [Compound 207, 5-(5-(1-(3-hydroxyazetidin-1-yl)-2,3-dihydro-1H-inden-4-yl)thiazol-2-yl)-2-isopropoxybenzonitrile] was run?
**A.** 0.5 to 5 nM

**Q.** `CC(C)Oc1ccc(-c2ncc(-c3cccc4c3CCC4N3CCCC3)s2)cc1C#N` (stereo not shown) [Compound 208] was tested. Which EC50 did it give?
**A.** 0.5 to 5 nM

**Q.** For `CC(C)Oc1ccc(-c2ncc(-c3cccc4c3CCC4N3CC[C@@H](O)C3)s2)cc1C#N` (stereo partly shown) [Compound 209], which EC50 is on record?
**A.** 0.5 to 5 nM

**Q.** For `CC(C)Oc1ccc(-c2ncc(-c3cccc4c3CCC4N3CC[C@H](O)C3)s2)cc1C#N` (stereo partly shown) [Compound 210], which EC50 is on record?
**A.** 0.5 to 5 nM

**Q.** How did the EC50 turn out when `CC(C)Oc1ccc(-c2ncc(-c3cccc4c3CCC4N3CC[C@H](N)C3)s2)cc1C#N` (stereo partly shown) [Compound 211] was run?
**A.** 0.5 to 5 nM

**Q.** How did the EC50 turn out when `CC(C)Oc1ccc(-c2ncc(-c3cccc4c3CCC4N3CC[C@@H](N)C3)s2)cc1C#N` (stereo partly shown) [Compound 212] was run?
**A.** > 5 nM

**Q.** With `CC(C)Oc1ccc(-c2ncc(-c3cccc4c3CCC4N3CCCCC3)s2)cc1C#N` (stereo not shown) [Compound 213] as the compound, how does the EC50 read?
**A.** 0.5 to 5 nM

**Q.** `CC(C)Oc1ccc(-c2ncc(-c3cccc4c3CCC4N3CCOCC3)s2)cc1C#N` (stereo not shown) [Compound 214] was tested. Which EC50 did it give?
**A.** 0.5 to 5 nM

**Q.** `CC(C)Oc1ccc(-c2ncc(-c3cccc4c3CCC4N3CCNCC3)s2)cc1C#N` (stereo not shown) [Compound 215] was tested. Which EC50 did it give?
**A.** 0.5 to 5 nM

**Q.** How did the EC50 turn out when `CC(C)Oc1ccc(-c2ncc(-c3cccc4c3CCC4N3CCN(C)CC3)s2)cc1C#N` (stereo not shown) [Compound 216] was run?
**A.** 0.5 to 5 nM

**Q.** How did the EC50 turn out when `CC(C)Oc1ccc(-c2ncc(-c3cccc4c3CCC4NC3CCOCC3)s2)cc1C#N` (stereo not shown) [Compound 217] was run?
**A.** > 5 nM

**Q.** For `CC(C)Oc1ccc(-c2ncc(-c3cccc4c3CCC4NC3CCCCC3)s2)cc1C#N` (stereo not shown) [Compound 218], which EC50 is on record?
**A.** > 5 nM

**Q.** `CNS(=O)(=O)CCNC1CCc2c(-c3cnc(-c4ccc(OC(C)C)c(C#N)c4)s3)cccc21` (stereo not shown) [Compound 219] was tested. Which EC50 did it give?
**A.** 0.05 to 0.5 nM

**Q.** For `CC(C)Oc1ccc(-c2ncc(-c3cccc4c3CC[C@@H]4NCCS(C)(=O)=O)s2)cc1C#N` [Compound 221, (S)-2-isopropoxy-5-(5-(1-((2-(methylsulfonyl)ethyl)amino)-2,3-dihydro-1H-inden-4-yl)thiazol-2-yl)benzonitrile], which EC50 is on record?
**A.** 0.05 to 0.5 nM

**Q.** Which EC50 does the source give for `CC(C)Oc1ccc(-c2cnc(-c3cccc4c3CCC4O)s2)cc1C#N` (stereo not shown) [Compound 222, 5-(2-(1-hydroxy-2,3-dihydro-1H-inden-4-yl)thiazol-5-yl)-2-isopropoxy-benzonitrile] here?
**A.** > 5 nM

**Q.** `CC(C)Oc1ccc(-c2ccc(-c3cccc4c3CCC4O)s2)cc1C#N` (stereo not shown) [Compound 223, 5-(5-(1-hydroxy-2,3-dihydro-1H-inden-4-yl)thiophen-2-yl)-2-isopropoxybenzonitrile] was tested. Which EC50 did it give?
**A.** 0.5 to 5 nM

**Q.** Which EC50 does the source give for `CC(C)Oc1ccc(-c2ccc(-c3cccc4c3CCC4NCCO)s2)cc1C#N` (stereo not shown) [Compound 224, 5-(5-(1-(2-hydroxyethylamino)-2,3-dihydro-1H-inden-4-yl)thiophen-2-yl)-2-isopropoxybenzonitrile] here?
**A.** > 5 nM

**Q.** How did the EC50 turn out when `CC(C)Oc1ccc(-c2ccc(-c3cccc4c3CC[C@H]4N)s2)cc1C#N` [Compound 225, (R)-5-(5-(1-amino-2,3-dihydro-1H-inden-4-yl)thiophen-2-yl)-2-isopropoxybenzonitrile] was run?
**A.** > 5 nM

**Q.** `CC(C)Oc1ccc(-c2cc(-c3cccc4c3CCC4O)cs2)cc1C#N` (stereo not shown) [Compound 226, 5-(4-(1-hydroxy-2,3-dihydro-1H-inden-4-yl)thiophen-2-yl)-2-isopropoxybenzonitrile] was tested. Which EC50 did it give?
**A.** 0.5 to 5 nM

**Q.** How did the EC50 turn out when `CC(C)Oc1ccc(-c2csc(-c3cccc4c3CCC4O)c2)cc1C#N` (stereo not shown) [Compound 227, 5-(5-(1-hydroxy-2,3-dihydro-1H-inden-4-yl)thiophen-3-yl)-2-isopropoxybenzonitrile] was run?
**A.** > 5 nM

From US8507538B2, “Selective heterocyclic sphingosine 1 phosphate receptor modulators” (Receptos, Inc., priority 2009, dated 2013)
